For data set [1], the target named is T1, hPPAR alpha (Homo sapiens, UniProt Q07869).
T1 construct: expressed in transfected cells; host or cells: CV-1 cells
T1 sequence (Q07869 239-466 limits assumed): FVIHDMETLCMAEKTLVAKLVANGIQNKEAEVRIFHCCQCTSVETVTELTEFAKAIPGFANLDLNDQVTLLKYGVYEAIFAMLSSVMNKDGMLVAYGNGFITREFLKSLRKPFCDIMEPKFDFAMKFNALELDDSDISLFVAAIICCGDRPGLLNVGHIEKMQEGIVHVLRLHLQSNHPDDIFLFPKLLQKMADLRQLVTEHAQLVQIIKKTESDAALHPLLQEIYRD
Put plainly: Transient transfection (transactivation) assay in CV-1 cells, hPPAR alpha. It counts as cell-based. The note with it: GAL4 chimera, SPAP reporter, read-out: EC50 nM HPPARα. An excerpt:
(§1) Compounds were screened for functional potency in transient transfection assays in CV-1 cells for their ability to activate the PPAR subtypes (transactivation assay). A previously established chimeric receptor system was utilized to allow comparison of the relative transcriptional activity of the receptor subtypes on the same target gene and to prevent endogenous receptor activation from complicating the interpretation of results. See, for example, Lehmann, J. M.; Moore, L. B.; Smith-Oliver, T. A.; Wilkison, W. O.; Willson, T. M.; Kliewer, S. A., An antidiabetic thiazolidinedione is a high affinity ligand for peroxisome proliferator-activated receptor gamma (PPARgamma), J. Biol. Chem., 1995, 270, 12953–6. The ligand binding domains for murine and human PPAR alpha, PPAR gamma, and PPAR delta were each fused to the yeast transcription factor GAL4 DNA binding domain. CV-1 cells were transiently transfected with expression vectors for the respective PPAR chimera along with0 a reporter construct containing five copies of the GAL4 DNA binding site driving expression of secreted placental alkaline phosphatase (SPAP) and β-galactosidase. After 16 h, the medium was exchanged to DME medium supplemented with 10% delipidated fetal calf serum and the test compound at the appropriate concentration. […]

The target of data set [2] is T2, hPPAR delta (Homo sapiens, UniProt Q03181).
T2 construct: expressed in transfected cells; host or cells: CV-1 cells
T2 sequence (Q03181 211-439 limits assumed): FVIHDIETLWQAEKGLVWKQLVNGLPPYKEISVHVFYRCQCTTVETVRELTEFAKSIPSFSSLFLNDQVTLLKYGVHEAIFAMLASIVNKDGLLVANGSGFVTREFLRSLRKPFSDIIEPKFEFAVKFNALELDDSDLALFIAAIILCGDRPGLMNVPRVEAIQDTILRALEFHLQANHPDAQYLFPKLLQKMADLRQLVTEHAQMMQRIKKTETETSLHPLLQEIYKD
Put plainly: Transient transfection (transactivation) assay in CV-1 cells, hPPAR delta. As to conditions: GAL4 chimera, SPAP reporter, read-out: EC50 nM HPPARδ. Type of data set: cell-based.
Source text: as §1

For data set [3], the target named is T3, hPPAR gamma (Homo sapiens, UniProt P37231).
T3 construct: expressed in transfected cells; host or cells: CV-1 cells
T3 sequence (P37231 238-503 limits assumed): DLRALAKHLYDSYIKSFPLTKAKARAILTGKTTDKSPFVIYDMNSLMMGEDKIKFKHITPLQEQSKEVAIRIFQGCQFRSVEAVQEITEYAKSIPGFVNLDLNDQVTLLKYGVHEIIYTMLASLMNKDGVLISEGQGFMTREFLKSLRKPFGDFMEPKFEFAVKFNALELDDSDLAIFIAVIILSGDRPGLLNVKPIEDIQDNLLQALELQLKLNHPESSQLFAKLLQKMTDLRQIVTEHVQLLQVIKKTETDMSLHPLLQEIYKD
Nature of the data set: Transient transfection (transactivation) assay in CV-1 cells, hPPAR gamma. It counts as cell-based. The note with it: GAL4 chimera, SPAP reporter, read-out: EC50 nM HPPARy.
Source text: as §1

Molecules are shown by their SMILES.

As usually defined, the EC50 is the concentration that produces a half-maximal response. For `CCc1ccc(-c2sc(C(=O)NCc3ccc(OC(C)(C)C(=O)O)cc3)nc2C)cc1` [Example 2, 2-methyl-2–[4-{[(4-methyl-5-[4-ethylphenyl]thiazol-2-ylcarbonyl)amino]methyl}phenoxy]propionic Acid], the values for the EC50 in data set [1], in data set [2] and in data set [3] were 5 nM, 8740 nM and 700 nM, respectively.

What is called melting point is the temperature, or range, at which the solid turns liquid. Regarding `CCOC(=O)C(C)(C)Oc1ccc(CNC(=O)c2nc(C)c(-c3ccc(F)cc3)s2)cc1` [Example 3, 2-methyl-2-[4-{[(4-methyl-5-[4-fluorophenyl]thiazol-2-ylcarbonyl)amino]methyl}phenoxy]propionic Acid Ethyl Ester], the melting point was 97 °C.

Turning to `Cc1nc(C(=O)NCc2ccc(OC(C)(C)C(=O)O)cc2)sc1-c1ccc(F)cc1` [Example 4, 2-methyl-2-[4-{[(4-methyl-5-[4-fluorophenyl]thiazol-2-ylcarbonyl)amino]methyl}phenoxy]propionic Acid], the melting point is 122 °C. Further, the EC50 in data set [1] came to 61 nM. In addition, in data set [2], the EC50 was found to be 10000 nM. For the same compound, the EC50 in data set [3] turned out to be 5880 nM.

The values are drawn from patent US7157479B2, “Oxazol/thiazol-derivatives activators of the hPPAR-alpha receptor” (Glaxo Group Limited, priority 2001, dated 2007).
